Experimental data: patent US10772893B2, “2-(morpholin-4-yl)-1,7-naphthyridines” (BAYER PHARMA AKTIENGESELLSCHAFT, priority 2014, dated 2020)
Where two headings read alike, the source gives them in different places.

Key:
human ATR = human ATR (Homo sapiens (Human), UniProt Q13535); assay: ATR binding assay (TR-FRET, displacement of fluorescent tracer A or B)
Source text: To determine of binding activity of the test compounds, full-length human ATR protein was expressed and purified together with ATRIP as described above. Furthermore, a fluorescently labelled compound (either tracer A or B as described above) was used as a tracer molecule. Detection of the binding event of the tracer was achieved by time-resolved fluorescence energy transfer (TR-FRET). We used an anti-GST-Terbium antibody (CisBio) that binds to the GST-tag at the N-terminus of ATR-kinase. […] Displacement of the fluorescent tracer by a test compound leads to a reduction of the TR-FRET-signal.
For the assay 50 nl of a 100-fold concentrated solution of the test compound in DMSO was pipetted into a black low volume 384 well microtiter plate (MTP, Greiner Bio-One, Frickenhausen, Germany). […] The ATR-working solution was incubated for 30 min at 22° C. prior to dispensing to pre-form the complex of antiGST-Tb+GST-ATR+ATRIP. Then, 3 μl of the ATR-working solution were added to the test compound and the mixture was incubated for 10 min at 22° C. to allow pre-binding of the test compounds to ATR/ATRIP. Then, 2 μl of a 100 nM solution of either tracer A or B in assay buffer were added to the ATR-working solution. The resulting mixture was incubated for 30 min at 22° C. […] IC50 values were calculated by a 4 parameter fit using standard software (GraphPad prism or equivalent).

Caco-2 cells = assay: Proliferation assay, crystal violet staining; assay type: cell-based; conditions: Homo sapiens, Caco-2, 96 h, 4 days incubation, read-out: Inhibition of Caco-2 cell proliferation
Procedure: (§1) After 24 hours, the cells of one plate (zero plate) were dyed with crystal violet (see below), whereas the medium of the other plates was replaced with fresh culture medium (200 μl) to which the test substances were added in various concentrations (0 μM, and also in the range of 0.001-10 μM; the final concentration of the solvent dimethyl sulphoxide was 0.1 or 0.5%). The cells were incubated for 4 days in the presence of the test substances. […] After washing the fixed cells three times with water, the plates were dried at room temperature. The cells were stained by adding 100 μl/measurement point of a 0.1% strength crystal violet solution (pH adjusted to pH 3 by adding acetic acid). After washing the cells three times with water, the plates were dried at room temperature. The dye was dissolved by adding 100 μl/measurement point of a 10% strength acetic acid solution. […] The percentage change in cell growth was calculated by normalizing the measured values to the absorbance values of the zero plate (=0%) and the absorbance of the untreated (0 W) cells (=100%). The IC50 values were determined by means of a four parameter fit.

HeLa-MaTu-ADR cells = assay: Proliferation assay, crystal violet staining; assay type: cell-based; conditions: Homo sapiens, 96 h, 4 days incubation, read-out: Inhibition of HeLa-MaTu-ADR cell proliferation
Procedure: as §1

DU145 cells = assay: Proliferation assay, crystal violet staining; conditions: Homo sapiens, DU-145, 96 h, read-out: Inhibition of DU145 cell proliferation, DU145 cells, 4 days incubation
Procedure: as §1

HeLa cells = assay: Proliferation assay, crystal violet staining; conditions: Homo sapiens, 96 h
Procedure: as §1

B16F10 cells = assay: Proliferation assay, crystal violet staining; conditions: B16-F10, 96 h, read-out: Inhibition of B16F10 cell proliferation
Procedure: Human tumour cells (Table 8) were originally obtained from the American Type Culture Collection (ATCC), the Deutsche Sammlung von Mikroorganismen and Zellkulturen (DSMZ, German Collection of Microorganisms and Cell Cultures), or Epo GmbH Berlin. […] After 24 hours, the cells of one plate (zero plate) were dyed with crystal violet (see below), whereas the medium of the other plates was replaced with fresh culture medium (200 μl) to which the test substances were added in various concentrations (0 μM, and also in the range of 0.001-10 μM; the final concentration of the solvent dimethyl sulphoxide was 0.1 or 0.5%). The cells were incubated for 4 days in the presence of the test substances. […] After washing the fixed cells three times with water, the plates were dried at room temperature. The cells were stained by adding 100 μl/measurement point of a 0.1% strength crystal violet solution (pH adjusted to pH 3 by adding acetic acid). After washing the cells three times with water, the plates were dried at room temperature. The dye was dissolved by adding 100 μl/measurement point of a 10% strength acetic acid solution. […] The percentage change in cell growth was calculated by normalizing the measured values to the absorbance values of the zero plate (=0%) and the absorbance of the untreated (0 W) cells (=100%). The IC50 values were determined by means of a four parameter fit.

NCI-H460 cells = assay: Proliferation assay, crystal violet staining; conditions: Homo sapiens, NCI-H460, 96 h, read-out: Inhibition of NCI-H460 cell proliferation, NCI-H460 cells, 4 days incubation
Procedure: as §1

[1] = read-out: Inhibition of HeLa cell proliferation, HeLa cells, 4 days incubation

Chain of human ATR (Q13535 other isoform, or with tags, fused parts or gaps): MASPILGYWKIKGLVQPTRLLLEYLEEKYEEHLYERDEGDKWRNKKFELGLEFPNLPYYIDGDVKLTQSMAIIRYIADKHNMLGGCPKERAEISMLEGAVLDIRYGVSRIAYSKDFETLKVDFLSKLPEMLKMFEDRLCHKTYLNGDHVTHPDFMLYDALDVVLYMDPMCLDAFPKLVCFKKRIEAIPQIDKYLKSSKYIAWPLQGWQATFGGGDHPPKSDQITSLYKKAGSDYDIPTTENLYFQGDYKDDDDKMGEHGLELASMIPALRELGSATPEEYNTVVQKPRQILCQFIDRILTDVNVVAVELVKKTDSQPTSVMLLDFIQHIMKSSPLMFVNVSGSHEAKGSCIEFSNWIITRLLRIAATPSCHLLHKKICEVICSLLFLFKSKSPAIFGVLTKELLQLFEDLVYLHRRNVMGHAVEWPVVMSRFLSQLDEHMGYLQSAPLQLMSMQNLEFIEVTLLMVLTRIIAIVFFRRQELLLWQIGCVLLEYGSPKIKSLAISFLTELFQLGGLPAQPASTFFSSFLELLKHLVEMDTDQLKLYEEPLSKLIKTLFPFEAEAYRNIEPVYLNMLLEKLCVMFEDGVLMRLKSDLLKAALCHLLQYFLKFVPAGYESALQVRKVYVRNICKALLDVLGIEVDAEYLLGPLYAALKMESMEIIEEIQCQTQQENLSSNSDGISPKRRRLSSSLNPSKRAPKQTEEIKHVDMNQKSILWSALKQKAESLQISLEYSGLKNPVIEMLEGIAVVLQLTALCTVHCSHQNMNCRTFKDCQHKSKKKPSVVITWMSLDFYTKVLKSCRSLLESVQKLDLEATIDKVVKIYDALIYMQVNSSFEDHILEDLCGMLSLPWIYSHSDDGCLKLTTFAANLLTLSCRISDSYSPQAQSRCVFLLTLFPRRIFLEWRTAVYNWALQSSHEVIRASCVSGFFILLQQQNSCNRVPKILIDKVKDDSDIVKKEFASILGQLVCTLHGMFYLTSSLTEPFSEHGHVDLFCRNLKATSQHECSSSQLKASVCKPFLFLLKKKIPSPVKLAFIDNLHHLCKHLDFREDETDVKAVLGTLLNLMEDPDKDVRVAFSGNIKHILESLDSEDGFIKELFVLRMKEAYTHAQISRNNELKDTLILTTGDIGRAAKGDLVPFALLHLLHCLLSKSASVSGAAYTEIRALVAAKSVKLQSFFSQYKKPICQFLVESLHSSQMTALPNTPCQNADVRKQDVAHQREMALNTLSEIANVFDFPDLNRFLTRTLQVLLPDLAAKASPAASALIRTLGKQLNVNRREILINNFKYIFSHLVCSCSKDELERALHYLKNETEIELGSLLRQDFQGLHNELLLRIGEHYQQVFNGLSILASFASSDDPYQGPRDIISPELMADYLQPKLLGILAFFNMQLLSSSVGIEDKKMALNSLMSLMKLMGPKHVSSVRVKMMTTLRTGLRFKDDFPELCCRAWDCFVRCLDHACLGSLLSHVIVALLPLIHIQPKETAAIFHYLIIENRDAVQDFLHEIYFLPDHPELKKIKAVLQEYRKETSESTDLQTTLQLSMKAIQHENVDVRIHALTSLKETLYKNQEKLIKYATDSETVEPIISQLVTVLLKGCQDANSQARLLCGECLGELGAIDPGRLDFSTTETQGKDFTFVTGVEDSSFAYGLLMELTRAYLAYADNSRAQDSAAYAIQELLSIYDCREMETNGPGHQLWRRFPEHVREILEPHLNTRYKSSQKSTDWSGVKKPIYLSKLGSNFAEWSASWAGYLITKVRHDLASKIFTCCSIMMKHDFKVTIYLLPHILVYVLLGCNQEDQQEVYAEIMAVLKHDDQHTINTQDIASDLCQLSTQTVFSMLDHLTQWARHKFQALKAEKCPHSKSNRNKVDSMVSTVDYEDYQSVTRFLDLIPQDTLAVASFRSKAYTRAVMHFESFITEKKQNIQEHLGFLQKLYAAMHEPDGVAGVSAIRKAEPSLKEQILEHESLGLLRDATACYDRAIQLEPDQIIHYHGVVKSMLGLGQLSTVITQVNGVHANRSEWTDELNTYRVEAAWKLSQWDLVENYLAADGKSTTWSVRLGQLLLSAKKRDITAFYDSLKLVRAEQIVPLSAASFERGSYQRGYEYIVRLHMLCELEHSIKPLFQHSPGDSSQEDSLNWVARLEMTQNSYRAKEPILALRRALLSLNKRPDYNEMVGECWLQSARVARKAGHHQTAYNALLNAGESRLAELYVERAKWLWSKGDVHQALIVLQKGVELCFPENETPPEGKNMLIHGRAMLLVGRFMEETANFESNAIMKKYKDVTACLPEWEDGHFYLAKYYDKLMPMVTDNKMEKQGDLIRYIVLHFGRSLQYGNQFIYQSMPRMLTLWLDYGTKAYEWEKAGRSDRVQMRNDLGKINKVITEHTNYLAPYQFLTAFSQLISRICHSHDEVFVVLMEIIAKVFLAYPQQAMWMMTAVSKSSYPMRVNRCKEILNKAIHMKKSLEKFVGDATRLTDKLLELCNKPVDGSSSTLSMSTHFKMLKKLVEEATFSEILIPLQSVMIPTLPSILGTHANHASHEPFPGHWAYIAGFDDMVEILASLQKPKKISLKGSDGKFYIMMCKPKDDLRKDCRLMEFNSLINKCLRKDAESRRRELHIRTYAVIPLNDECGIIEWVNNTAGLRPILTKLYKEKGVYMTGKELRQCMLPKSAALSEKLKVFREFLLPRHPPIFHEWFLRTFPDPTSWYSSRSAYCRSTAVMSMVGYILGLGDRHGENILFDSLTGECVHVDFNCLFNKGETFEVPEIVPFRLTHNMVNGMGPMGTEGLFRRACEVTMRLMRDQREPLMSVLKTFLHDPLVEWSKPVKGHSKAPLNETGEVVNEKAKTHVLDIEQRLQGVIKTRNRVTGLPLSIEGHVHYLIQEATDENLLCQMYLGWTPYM
Chain of human ATR (Q8WXE1 other isoform, or with tags, fused parts or gaps partner): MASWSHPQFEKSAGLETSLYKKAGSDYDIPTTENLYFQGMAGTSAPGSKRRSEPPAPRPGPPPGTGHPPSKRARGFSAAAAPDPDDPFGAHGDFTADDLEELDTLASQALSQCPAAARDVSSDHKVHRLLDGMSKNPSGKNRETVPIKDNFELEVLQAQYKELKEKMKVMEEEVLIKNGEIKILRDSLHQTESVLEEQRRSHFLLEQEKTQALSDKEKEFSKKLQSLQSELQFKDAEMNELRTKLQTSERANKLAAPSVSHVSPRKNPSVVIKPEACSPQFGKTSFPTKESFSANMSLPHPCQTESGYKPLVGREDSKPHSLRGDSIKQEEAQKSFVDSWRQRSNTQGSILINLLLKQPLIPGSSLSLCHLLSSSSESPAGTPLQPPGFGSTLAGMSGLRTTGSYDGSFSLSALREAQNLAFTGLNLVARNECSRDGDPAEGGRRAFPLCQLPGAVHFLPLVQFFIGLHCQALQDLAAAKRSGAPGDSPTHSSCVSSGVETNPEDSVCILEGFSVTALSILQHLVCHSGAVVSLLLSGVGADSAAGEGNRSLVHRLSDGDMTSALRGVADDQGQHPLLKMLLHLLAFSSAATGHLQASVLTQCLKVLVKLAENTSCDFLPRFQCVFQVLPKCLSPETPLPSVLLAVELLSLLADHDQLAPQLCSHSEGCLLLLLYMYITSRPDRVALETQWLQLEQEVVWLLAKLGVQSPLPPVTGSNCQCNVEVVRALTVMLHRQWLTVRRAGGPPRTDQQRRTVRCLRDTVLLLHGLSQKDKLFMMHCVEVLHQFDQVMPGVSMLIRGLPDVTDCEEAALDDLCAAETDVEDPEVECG

SMILES | IC50 (human ATR) [µM] | IC50 (Caco-2 cells) [µM] | IC50 (HeLa-MaTu-ADR cells) [µM] | IC50 (DU145 cells) [µM] | IC50 (HeLa cells; read-out: Inhibition of HeLa cell proliferation) [µM] | IC50 (B16F10 cells) [µM] | IC50 (NCI-H460 cells) [µM] | IC50 (HeLa cells; [1]) [µM]
CC1(C)C[C@@H]2C[C@@](C)(CN2c2cc(N3CCOCC3)nc3c(-c4ccn[nH]4)nccc23)C1 (stereo in doubt) [Example 421, 2-(morpholin-4-yl)-8-(1H-pyrazol-5-yl)-4-[1,3,3-trimethyl-6-azabicyclo[3.2.1]oct-6-yl]-1,7-naphthyridine] | 1.79 |  |  |  |  |  |  | 
CCOP(C)(=O)c1cc(N2CCOC[C@H]2C)nc2c(-c3ccn[nH]3)nccc12 (stereo partly drawn) [Example 125, ethyl methyl{2-[(3R)-3-methylmorpholin-4-yl]-8-(1H-pyrazol-5-yl)-1,7-naphthyridin-4-yl}phosphinate] |  | > 3 | > 3 | 0.712 | 0.705 | > 3 |  | 
CC(C)S(=O)(=O)c1ccc(-c2cc(N3CCOC[C@H]3C)nc3c(-c4ccn[nH]4)nccc23)cc1 [Example 151, 4-[4-(isopropylsulfonyl)phenyl]-2-[(3R)-3-methylmorpholin-4-yl]-8-(1H-pyrazol-5-yl)-1,7-naphthyridine] |  | 2.05 | 2.15 | 1.9 |  |  | 0.673 | 0.921
C[C@@H]1COCCN1c1cc(N2CCN(C)C(=O)C2)c2ccnc(-c3ccn[nH]3)c2n1 [Example 157, 1-methyl-4-{2-[(3R)-3-methylmorpholin-4-yl]-8-(1H-pyrazol-5-yl)-1,7-naphthyridin-4-yl}piperazin-2-one] |  | > 3 | > 3 | > 3 |  |  | > 3 | 0.872
CC(C)[S+]([O-])c1cc(N2CCOCC2)nc2c(-c3ccn[nH]3)nccc12 (centres unmarked) [Example 196, 2-(morpholin-4-yl)-4-[propan-2-ylsulfinyl]-8-(1H-pyrazol-5-yl)-1,7-naphthyridine] |  | 0.869 | > 3 | 0.144 |  |  | 0.291 | 1.02
C[C@@H]1COCCN1c1cc(OCCCS(C)(=O)=O)c2ccnc(-c3ccn[nH]3)c2n1 [Example 197, 2-[(3R)-3-methylmorpholin-4-yl]-4-[3-(methylsulfonyl)propoxy]-8-(1H-pyrazol-5-yl)-1,7-naphthyridine] |  | > 3 | > 3 | 0.129 |  |  | 0.516 | 1.01
CC(C)S(=O)(=O)c1cc(N2CCOCC2)nc2c(-c3ccn[nH]3)nccc12 [Example 199, 2-(morpholin-4-yl)-4-(propan-2-ylsulfonyl)-8-(1H-pyrazol-5-yl)-1,7-naphthyridine] |  | 0.708 | 0.965 | 0.244 |  |  | 0.32 | 0.857
C[C@@H]1COCCN1c1cc(-c2ccn[nH]2)c2ccnc(-c3ccn[nH]3)c2n1 [Example 205, 2-[(3R)-3-methylmorpholin-4-yl]-4,8-di(1H-pyrazol-5-yl)-1,7-naphthyridine] |  | 1.24 | 1.49 | 0.652 |  |  | 0.219 | 0.672
O=S1(=O)CCCN1c1cc(N2CCOCC2)nc2c(-c3ccn[nH]3)nccc12 [Example 216, 4-(1,1-dioxido-1,2-thiazolidin-2-yl)-2-(morpholin-4-yl)-8-(1H-pyrazol-5-yl)-1,7-naphthyridine] |  | > 3 | > 3 | 1.66 |  |  | 1.11 | 1.01
COc1ncccc1-c1cc(N2CCOC[C@H]2C)nc2c(-c3ccn[nH]3)nccc12 [Example 220, 4-(2-methoxypyridin-3-yl)-2-[(3R)-3-methylmorpholin-4-yl]-8-(1H-pyrazol-5-yl)-1,7-naphthyridine] |  | > 1 | 0.993 | 0.334 |  |  | 0.303 | 0.604
C[C@@H]1COCCN1c1cc(-c2ccc(F)nc2F)c2ccnc(-c3ccn[nH]3)c2n1 [Example 228, 4-(2,6-difluoropyridin-3-yl)-2-[(3R)-3-methylmorpholin-4-yl]-8-(1H-pyrazol-5-yl)-1,7-naphthyridine] |  | 0.637 | 0.594 | 0.313 |  |  | 0.233 | 0.225
CC(C)S(=O)(=Nc1cc(N2CCOC[C@H]2C)nc2c(-c3ccn[nH]3)nccc12)c1ccc(Br)cc1 (some centres unmarked) [Example 275] | 0.304 |  |  |  |  |  |  | 
C[C@@H]1COCCN1c1cc(C2(S(C)(=O)=O)CC2)c2ccnc(-c3ccn[nH]3)c2n1 [Example 286, 2-[(3R)-3-methylmorpholin-4-yl]-4-[1-(methylsulfonyl)cyclopropyl]-8-(1H-pyrazol-5-yl)-1,7-naphthyridine] |  | 0.529 | 0.882 | 0.0486 |  |  | 0.0756 | 0.293
Cn1nccc1-c1cc(N2CCOCC2)nc2c(-c3ccn[nH]3)nccc12 [Example 348, 4-(1-methyl-1H-pyrazol-5-yl)-2-(morpholin-4-yl)-8-(1H-pyrazol-5-yl)-1,7-naphthyridine] |  | 0.822 | 0.94 | 0.518 |  |  | 0.399 | 0.613
